Columns and labels:
[1] = Inhibition of ERK1/2 phosphorylation in human MIA PaCa-2 cells incubated for 2 hrs by MSD assay; type: cell-based; conditions: MIA PaCa-2, 2 h
[2] = test system: MIA PaCa-2; assay: Antiproliferative activity against human MIA PaCa-2 cells assessed as reduction in cell viability incubated for 72 hrs by Cell Titer-Glo reagent based luminescent cell viability assay; type: functional; conditions: MIA PaCa-2, 72 h
[3] = Oral bioavailability in mouse; type: ADME, organism-based; conditions: in vivo
[4] = Unbound AUC in mouse at 5 mg/kg, po; type: ADME, organism-based; conditions: in vivo
[5] = Unbound AUC in mouse at 100 mg/kg, po; type: ADME, organism-based; conditions: in vivo
[6] = molecular target: GTPase KRas (Homo sapiens, UniProt P01116, C118A/G12C); assay: Inhibition of recombinant His-tagged GDP-bound human KRAS G12C/C118A mutant (1 to 169 residues) (unknown origin) extracted by Escherichia coli assessed as SOS1-catalyzed GDP-GTP exchange preincubated for 2 hrs followed by SOS1 and GTP addition for 30 mins and measured after 45 mins of GST-tagged c-RAF addition by luminescence based Alphascreen assay
[7] = Clearance in mouse; type: ADME, organism-based; conditions: in vivo
[8] = animal or person; conditions: Mus musculus, MIA PaCa-2, po, 2 h, read-out: INH

Row | IC50 [1] | IC50 [2] | bioavailability [3] | fAUC [4] | fAUC [5] | IC50 [6] | clearance [7] | Compound | inhibition in vivo at 100 mg/kg [8]
1 | 100 nM | 32 nM | 44% | 0.018 µM·h | 0.137 µM·h |  |  | C=CC(=O)N1CC2(CCN(c3nc4c(c(-c5cc(O)cc6ccccc56)c3C)COC(C)(C)C4)C2)C1 | 
2 | 67 nM | 42 nM |  |  |  |  |  | C=CC(=O)N1CC2(CCN(c3nc4c(c(-c5c(C)ccc6[nH]ncc56)c3C#N)CCC(C)(C)C4)C2)C1 (atropisomer P) | 
3 | 10 nM | 11 nM |  |  |  | 19 nM |  | C=CC(=O)N1CC2(CCN(c3nc4c(c(-c5c(C)ccc6[nH]ncc56)c3C#N)C[C@H]3C[C@@H]4C3(C)C)C2)C1 | 
4 |  |  | 50% | 0.042 µM·h | 0.15 µM·h |  |  | C=CC(=O)N1CC2(CCN(c3nc4c(c(-c5cc(O)cc6ccccc56)c3Cl)COC(C)(C)C4)C2)C1 | 
5 | 217 nM | 119 nM | 27% | 0.027 µM·h | 0.36 µM·h | 62 nM |  | C=CC(=O)N1CC2(CCN(c3nc4c(c(-c5cc(O)cc6ccccc56)c3F)COC(C)(C)C4)C2)C1 | 
6 | 158 nM | 96 nM | 3% | 0.003 µM·h |  | 64 nM | 90 mL/min/kg | C=CC(=O)N1CC2(CCN(c3nc4c(c(-c5c(C)ccc6[nH]ncc56)c3C#N)COC(C)(C)C4)C2)C1 | 
7 | 101 nM | 143 nM | 34% | 0.013 µM·h |  | 22 nM |  | C=CC(=O)N1CC2(CCN(c3nc4c(c(-c5cc(O)cc6ccccc56)c3C#N)COC(C)(C)C4)C2)C1 | 
8 | 40 nM | 21 nM | 4% | 0.001 µM·h |  | 19 nM |  | C=CC(=O)N1CC2(CCN(c3nc4c(c(-c5cc(O)cc6ccccc56)c3C#N)C[C@H]3C[C@@H]4C3(C)C)C2)C1 | 
9 |  |  | 14% | 0.021 µM·h | 1.01 µM·h |  |  | C=CC(=O)N1CC2(CCN(c3nc4c(c(-c5cc(O)cc6ccccc56)c3F)C[C@H]3C[C@@H]4C3(C)C)C2)C1 | 55%
10 | 8240 nM | > 5000 nM |  |  |  | 3830 nM |  | C=CC(=O)N1CC2(CCN(c3nc4c(c(-c5c(C)ccc6[nH]ncc56)n3)CCCC4)C2)C1 | 
11 | 6390 nM | 3350 nM |  |  |  | 840 nM |  | C=CC(=O)N1CC2(CCN(c3nc4c(c(-c5c(C)ccc6[nH]ncc56)n3)CCC(C)(C)C4)C2)C1 | 

The remaining lines, values behind:

Row | Compound | IC50 [1] | IC50 [2] | bioavailability [3] | fAUC [4] | fAUC [5] | IC50 [6] | clearance [7] | inhibition in vivo at 100 mg/kg [8]
12 | C=CC(=O)N1CC2(CCN(c3nc4c(c(N[C@H](CC(=O)NC)CC(C)C)n3)CCCC4)C2)C1 | 1590 nM | 890 nM |  |  |  |  |  | 
13 | C=CC(=O)N1CC2(CCN(c3nc(N[C@H](CC(=O)NC)CC(C)C)nc(-c4cc(F)ccc4OC)n3)CC2(F)F)C1 | 950 nM | 720 nM |  |  |  | 300 nM |  | 
14 | C=CC(=O)N1CC2(CCN(c3nc(N[C@H](CC(=O)NC)CC(C)C)c4ccccc4n3)C2)C1 | 6170 nM | 1290 nM |  |  |  |  |  | 
15 | C=CC(=O)N1CC2(CCN(c3nc(N[C@H](CC(=O)NC)CC(C)C)nc(-c4cccc(OC)c4Cl)n3)CC2)C1 | 8840 nM |  |  |  |  | 1750 nM |  | 
16 | C=CC(=O)N1CC2(CCN(c3nc(N[C@H](CC(=O)NC)CC(C)C)nc(-c4cccc(OC)c4F)n3)C2)C1 | 1230 nM | 720 nM |  |  |  | 610 nM |  | 
17 | C=CC(=O)N1CC2(CCN(c3nc4c(c(-c5cccc6sc(N)nc56)n3)CCCC4)C2)C1 | 8130 nM | > 5000 nM |  |  |  | 890 nM |  | 
18 | C=CC(=O)N1CC2(CCN(c3nc(N[C@H](CC(=O)NC)CC(C)C)nc(-c4cccc(OC)c4OC)n3)C(C)C2)C1 (stereo not given in full) | 6010 nM |  |  |  |  | 3200 nM |  | 
19 | C=CC(=O)N1CC2(CCN(c3nc4c(c(-c5cc(O)cc6ccccc56)n3)CCCC4)C2)C1 | 8480 nM | > 5000 nM |  |  |  | 690 nM |  | 

Reference: ChEMBL document CHEMBL6153120, “Identification of Structurally Novel KRASG12C Inhibitors through Covalent DNA-Encoded Library Screening” (J Med Chem, 2025)
